According to patent US20250127840A1, “METHOD FOR ACTIVATING DENDRITIC CELLS AND METHOD FOR ACTIVATING NATURAL KILLER CELLS, HELPER T CELLS, KILLER T CELLS, B CELLS, OR MACROPHAGES” (TOYO SHINYAKU CO., LTD., priority 2023, published 2025):

Tests used:
NK cells = test: Test 3 NK cell cytotoxicity of spleen cells against calcein-stained YAC-1 target cells; format: cell-based, mouse; conditions: test substance 1 μg/mL, 18 hours, then YAC-1 target cells 4 hours, control set to 1
Procedure: After dissection of a C57BL/6J mouse (8 weeks old), spleen cells were isolated, and a cell suspension prepared by dilution in a 10% fetal bovine serum-RPMI 1640 medium was seeded at 100 µL/well so that the cells were seeded at 5×10^6 cells/well in a 96-well plate. To the seeded cells, a medium (0.5% DMSO-10% fetal bovine serum-RPMI 1640 medium) prepared to have a total concentration of test substances of 1 μg/mL (for young barley leaf juice powder, the concentration of young barley leaf juice ingredient excluding dextrin was 1 μg/mL) was added at 100 μL/well, and the resultant was cultured for 18 hours in a 5% CO2 incubator (“CO2 Incubator” manufactured by ASTEC) at 37° C.
After culture, the plate was centrifuged (at 1,000 rpm for 10 minutes) using a centrifuge. 150 μL of the supernatant was removed, and 150 μL of 1% BSA-RPMI 1640 was added. This process was repeated once more. After that, YAC-1 cells (stained with calcein) sensitive to NK cells were added as target cells, and the resultant was cultured for 4 hours.
After culture, the plate was centrifuged (at 1,000 rpm for 10 minutes) using a centrifuge, and the supernatant was collected in a 96-well black plate. The collected supernatant was measured for fluorescence intensity (at an excitation wavelength of 490 nm and a fluorescence wavelength of 515 nm) using a microplate reader (“SpectraMax i3x” manufactured by Molecular Devices), and the NK cell cytotoxicity was evaluated.
The NK cell cytotoxicity (relative value) is shown in Table 5 with the value of the control set to 1. A higher relative value of NK cell cytotoxicity indicates greater activation of NK cells. […] Even if dietary fiber (cellulose), Vitamin D, or Spirulina, which are known to have immune-stimulating effects, was added, the NK cells were not activated.

[1] = tested on: bone marrow-derived dendritic cells (including both cDCs and pDCs); test: Test 1 (A) TNF-α gene expression in bone marrow-derived dendritic cells (real-time PCR); format: cell-based, mouse; conditions: test substance 10 μg/mL, 72 hours; TNF-α/β-actin, control with no test substance set to 1
Procedure: After dissection of a C57BL/6J mouse (8 weeks old), bone marrow mononuclear cells were sampled from the femur and tibia, and cultured using a differentiation induction medium (RPMI 1640 medium containing 10% fetal bovine serum, 100 μM of 2-mercaptoethanol, and 100 ng/ml of Flt3 ligand). […] After the medium was removed from each well, 100 μL of a differentiation induction medium containing 0.5% DMSO, which was prepared so that a total concentration of the test substances was 10 μg/mL (for young barley leaf juice powder, the concentration of young barley leaf juice ingredient excluding dextrin was 10 μg/mL), was added to each well and cultured for 72 hours. After that, the medium was removed from each well, and RNA was collected using the RNeasy Mini Kit (manufactured by QIAGEN). From the obtained RNA, a gene expression level (mRNA expression level) of TNF-α was measured by the real-time PCR method using the One Step TB Green® PrimeScript™ RT-PCR Kit II <Perfect Real Time> (manufactured by TaKaRa). For a primer, Mm_Il12B_1_SG QuantiTect Primer Assay and Mm_Tnf1_SG QuantiTect Primer Assay (manufactured by QIAGEN) were used.

Compound	NK cell cytotoxicity (relative value) (NK cells)	NK cell cytotoxicity (relative value) (NK cells; listed as Comparative Example 5)	NK cell cytotoxicity (relative value) (NK cells; listed as Comparative Example 4)	TNF-α gene expression level (relative value) [1]
C=C1CC[C@H](O)C/C1=C/C=C1\CCC[C@]2(C)[C@@H]([C@H](C)CCCC(C)C)CC[C@@H]12 [compound 2, Vitamin D3]	not activated	0.93	–	–
Cellulose [compound 1]	not activated	–	1.05	–
β-glucan [compound 3]	1.04	–	–	1.17
